Values quoted from earlier work as cited in patent US5922313A, “Antibacterial composition” (Bio-Safe Enterprises, Inc., priority 1998, dated 1999).

## nonylphenol thoxylate
Hepatitis B
  virus killing: effective in killing hepatitis B and HIV viruses
HIV
  virus killing: effective in killing hepatitis B and HIV viruses
